Data as given in ChEMBL document CHEMBL1153715, “An antimicrobial guanidine-bearing sesterterpene from the cultured cyanobacterium Scytonema sp” (J Nat Prod, 2009).
Values after ≈ are worked out from the molar mass of the structure shown.

Key:
[1] = test system: Mycobacterium tuberculosis; assay: Antitubercular activity against Mycobacterium tuberculosis H37Rv after 7 days by microplate alamar blue assay; type: functional; conditions: 168 h
[2] = test system: Escherichia coli; assay: Antibacterial activity against Escherichia coli by broth microdilution method; type: functional
[3] = test system: Candida albicans; assay: Antifungal activity against Candida albicans by broth microdilution method; type: functional
[4] = test system: Vero; assay: Cytotoxicity against african green monkey Vero cells by cell Titer_Glo assay; type: cell-based; conditions: Chlorocebus sabaeus
[5] = test system: Staphylococcus aureus; assay: Antibacterial activity against Staphylococcus aureus by broth microdilution method; type: functional
[6] = test system: Bacillus anthracis; assay: Antibacterial activity against Bacillus anthracis after 18 hrs by broth microdilution method; type: functional

SMILES: C=C1CC[C@@H]2[C@](C)(CC[C@H]3[C@@]2(C)CC[C@H]2C(C)(C)CC[C@@H](O)[C@@]23C)[C@H]1CNC(=N)N [SCYTOSCALAROL]
- MIC [1]: 110 µM (≈ 45.7 µg/mL)
- MIC [2]: 30 µM (≈ 12.5 µg/mL)
- MIC [3]: 4 µM (≈ 1.66 µg/mL)
- IC50 [4]: 135 µM
- MIC [5]: 2 µM (≈ 0.831 µg/mL)
- MIC [6]: 6 µM (≈ 2.49 µg/mL)
